The METLIN SMRT retention time set (Domingo-Almenara et al. 2019)

Test: gradient 5% acetonitrile 3 min, to 50% in 2 min, to 85% in 15 min, held 3 min, 100 µL/min
Settings: column: Zorbax Extend-C18 2.1 x 50 mm; eluents: water / acetonitrile, 0.1% formic acid
How it was run: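 The system's dead and dwell volumes were 40 μL and 900 μL, with a Zorbax Extend-C18 column (2.1 × 50 mm, 1.8 μm) run at 100 μL/min in water and acetonitrile containing 0.1% formic acid each. Pure standards were analyzed in mixtures of ~100 molecules by HPLC–quadrupole time-of-flight mass spectrometry in positive and negative ionization mode. Retention time was assigned from computationally picked, manually inspected adduct peaks.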

RP-LC retention time [s] | Structure (SMILES)
603 | Cn1cnnc1SCCNC(=O)c1ccc(OCC(=O)C2CC2)cc1
714 | CN(Cc1nc2ccccc2n1Cc1ccc(F)cc1)C(=O)c1ccco1
908 | COC(=O)c1ccc2c(=O)n(-c3ccccc3)c(N3CCCC3)nc2c1
566 | O=C(c1cc(N2C(=O)CCS2(=O)=O)ccc1Cl)N1CCN(c2ccccn2)CC1
675 | COC(=O)c1cc2c(=O)n(-c3ccc(NC(C)=O)cc3)ccc2nc1C
900 | CCOc1ccc(CCNC(=O)c2nc(CCS(=O)(=O)c3ccccc3)no2)cc1OCC
760 | Cc1ccc(CNC(=O)N2CCC(OC3CCN(S(C)(=O)=O)CC3)CC2)cc1
913 | O=C(c1ccc(F)c(Cl)c1)N1CCCC(c2nnc(-c3ccccc3)o2)C1 (configuration not stated)
995 | Cc1ccc(-c2noc(-c3cccc(S(=O)(=O)N4CCN(c5ccccn5)CC4)c3)n2)cc1
597 | O=C(c1ccsc1)N1CCN(c2nc(CN3CCCCC3)cs2)CC1
672 | CNC(=O)C1CCCN(c2nc3ncn(CC(=O)Nc4cccc(Cl)c4)c(=O)c3s2)C1 (configuration not stated)
610 | CN(C)c1ccc2c(c1)CN(C(=O)C1CC=CC1)CCO2
883 | O=C(c1ccccc1F)N1CCc2nc(-c3ccccc3)ncc2C1
746 | COc1ccc(-c2cn3c(CC(=O)Nc4ccc(OC)cc4OC)csc3n2)cc1
712 | COc1cccc(C2=NC3(CCN(C(=O)c4ccc5c(c4)OCO5)CC3)NC2=O)c1
965 | COc1c(C(=O)NC2CC2)sc2cc(Cl)ccc12
979 | CO[C@@H]1[C@@H](OC(N)=O)[C@H](O)[C@H](Oc2ccc3c(O)c(NC(=O)c4ccc(O)c(CC=C(C)C)c4)c(=O)oc3c2C)OC1(C)C
810 | O=C(c1cn(-c2cc(-c3nc(C4CC4)no3)ccn2)cn1)N1CCCCC1

RP-LC retention time [s] | Structure (SMILES)
722 | COc1cccc2c1ccn2CCNC(=O)C1CC(=O)N(c2n[nH]c3ccccc23)C1 (configuration not stated)
636 | O=C(NCc1ccco1)N1CCN(Cc2nc3cccnc3n2-c2cccc(F)c2)CC1
899 | COc1ccc(NC(=O)Cn2cnc3c(sc4nc(-c5ccccc5)ccc43)c2=O)cc1OC
936 | CCOc1cc(CNC(=O)C2CCCN(c3nc4ccccc4n(CC)c3=O)C2)ccc1OC (configuration not stated)
574 | O=C(CCc1ccc2c(c1)CNCCO2)NCC1CC1
691 | O=C(Nc1ccc2c(c1)OCCO2)C1CCCN(c2ccnc(-c3ccc(F)cc3)n2)C1 (configuration not stated)
846 | CCS(=O)(=O)N1CC(=O)N(c2ccc(C)c(C)c2)C(C)(C(=O)NCc2ccc(F)cc2)C1 (configuration not stated)
1070 | CSc1nsc(SCC(=O)Nc2nc(-c3ccccc3)cs2)n1
1090 | Cc1cccc(CN2N=C(C(=O)N3CCC(C)CC3)S(=O)(=O)c3ccccc32)c1
908 | O=C(CCC1CCCN(S(=O)(=O)c2ccccc2F)C1)NCc1cccs1 (configuration not stated)
884 | O=C1CCCC1C(=O)Nc1ccc2ccccc2c1 (configuration not stated)
570 | O=C(NCC(F)(F)F)c1ccc(N2CCCC2)nn1
1240 | O=C(Nc1cccc([N+](=O)[O-])c1)c1ccc2ccccc2c1O
1290 | Cc1cccc(N2CCN(S(=O)(=O)c3cc(-c4cc(C(F)(F)F)[nH]n4)sc3C)CC2)c1C
878 | CN(C)S(=O)(=O)c1ccc(-c2nnc(C(=O)NCc3cc(F)cc(F)c3)o2)cc1
968 | O=C(NCc1ccccc1Cl)C(=O)c1cn(CC(=O)N2CCCC2)c2ccccc12
677 | CC(=O)N1N=C(c2ccc(Br)cc2)CC1c1ccc2ncccc2c1 (configuration not stated)

The next lines start with the compound.

Structure (SMILES) | RP-LC retention time [s]
O=C(Nc1ccc(F)cc1F)c1cnc(-c2ccccc2)nc1-c1ccncc1 | 874
CN1C(=O)[C@H]2CN(Cc3ccccc3OC(F)(F)F)C[C@H]2C1=O | 691
COc1ccc(C(=O)N2C[C@@H]3C[C@H](NC(=O)c4cccs4)[C@H]2C3)c(C)c1 | 628
CCCNC(=O)C1CCN(c2ccc(SCC(=O)Nc3cc(OC)ccc3OC)nn2)CC1 | 662
Cn1c(=O)c(N2CCN(C(=O)c3cccs3)CC2)nc2cccnc21 | 793
COc1ccc(Cn2nnc(C(=O)NCC3CCCO3)c2-n2cccc2)cc1 (configuration not stated) | 832
O=C(NCc1csc(C2CCN(C(=O)c3ccc(F)cc3F)CC2)n1)C1CC1 | 697
O=C(Cn1nc(N2CCCCCC2)c2ccccc2c1=O)NCc1ccc(F)cc1 | 1040
COc1ccc(NC(=O)c2c(C)oc3nc(C)nc(N4CCOCC4)c23)c(OC)c1 | 818
CCOCCCNC(=O)C1CCCN(S(=O)(=O)c2ccc3c(ccn3C)c2)C1 (configuration not stated) | 788
CCCS(=O)(=O)N1CCC(c2noc(-c3ccccc3)n2)C1 (configuration not stated) | 933
CC(C)NC(=O)CSc1nccnc1N1CCN(c2ccccc2)CC1 | 867
Cc1[nH]c(C)c(S(=O)(=O)N2CCN(c3ccccn3)CC2)c1C(=O)N1CCCCC1 | 606
Cc1ccc2c(=O)c3c([nH]c2c1C)CCN(CC(=O)Nc1ccc(F)c(F)c1)C3 | 646
Cc1nc2cc(N3CC(C(=O)Nc4cccc(C)c4C)CC3=O)ccc2o1 (configuration not stated) | 785
C[C@H](NC(=O)[C@H](Cc1ccccc1)NC(=O)OCc1ccccc1)C(=O)CF | 824
CCOC(=O)c1c(NC(=O)C2CCN(S(C)(=O)=O)CC2)sc2ccccc12 | 979
CCOC(=O)c1c(C)[nH]c(C)c1S(=O)(=O)N1CCC(C(=O)N2CCn3c2nc2ccccc23)CC1 | 725
Cc1cc(-c2nnc(C3CC3)o2)c(C)n1CC(=O)NCc1ccc(F)cc1 | 784
O=C(Cc1ccsc1)N1CCC(c2nncn2-c2ccccc2)CC1 | 689
COc1ccc(OC)c(-c2cn3ccn(-c4cc(C)cc(C)c4)c(=O)c3n2)c1 | 975
O=C(Cc1nnc(-c2cccc(F)c2)o1)N1CCCCC1 | 630
COc1ccc(CN2CC3(CCN(S(=O)(=O)C(C)C)CC3)C2=O)cc1 | 787
CCn1c(SCC(=O)Nc2ccccc2C(F)(F)F)nc2c(c1=O)SC(C)C2 (configuration not stated) | 854
COc1ccccc1C(=O)Nc1cnc(-c2cccc(Cl)c2)nc1 | 1180
Nc1cc(C2CCN(C(=O)/C=C/c3ccccc3)CC2)no1 | 724

Structure (SMILES) | RP-LC retention time [s]
N#Cc1cccc(C(=O)NC2(c3nc(-c4ccncc4)no3)CCCCC2)c1 | 875
Cc1nc2cc(N3CC(C(=O)Nc4cccc(Br)c4)CC3=O)ccc2o1 (configuration not stated) | 805
CCC(=O)O[C@]1(C(=O)CO)CC[C@H]2[C@@H]3CCC4=CC(=O)CC[C@]4(C)[C@H]3CC[C@@]21C | 1060
CCOC(=O)c1sc(NC(=O)C(C)(C)C)nc1-c1ccccc1 | 592
Cc1ccccc1Cn1c(CN2CCC(C(=O)NCCc3ccco3)CC2)cc2ccccc21 | 805
COc1ccc(NC(=O)C2CC(=O)N(c3ccc4oc(C)nc4c3)C2)cc1F (configuration not stated) | 733
CC(C)NC(=O)c1sc(-n2cccc2)nc1C(C)C | 1060
CN(Cc1ccccc1)c1ccc(-c2noc(CN3CCCC3)n2)cn1 | 675
CCN1CCN(C(=O)c2cn(-c3ccc(S(=O)(=O)N4CCCC(C)C4)cn3)cn2)CC1 (configuration not stated) | 659
CCOC(=O)c1nc(Nc2ccc(Cl)cc2)c2ccccc2n1 | 957
COc1cccc(CNC(=O)N2CCC3(CC2)NC(=O)c2ccccc2O3)c1 | 739
CCn1cc(-c2nc(CC(=O)NC3CCCC3)cs2)c2cccnc21 | 848
Cc1ccc(NC(=O)C2CCCN2S(=O)(=O)c2cc3c(cc2C)NC(=O)CO3)c(C)c1 (configuration not stated) | 817
Cc1cc(C)c2c(-n3cccc3)nn(CC(=O)NC(C)CCc3ccccc3)c2n1 (configuration not stated) | 1080
COC(=O)CCNC(=O)C1c2ccccc2C(=O)N(CC(C)C)C12CCCCC2 (configuration not stated) | 842
CCOc1ccccc1CNC(=O)C1CCN(S(=O)(=O)c2cn(C(C)C)cn2)CC1 | 779
CCCN1C(=O)COc2ccc(-c3noc(-c4cccc(Br)c4)n3)cc21 | 1400
Cc1noc([C@@H]2CN(C(=O)c3cc(C)n(Cc4ccco4)c3C)C[C@H]2C(N)=O)n1 | 686
O=C(NCc1ccccn1)C1CCN(C(=O)c2ncn3c2COC(c2ccccc2)C3)CC1 (configuration not stated) | 602
Cc1nnn(C23CC4CC(CC(C(=O)N5CCN(c6ccccn6)CC5)(C4)C2)C3)n1 | 597
COc1ccc(C2Cn3cnc(C(=O)N4CCC(C(=O)NC5CCCCCC5)CC4)c3CO2)cc1 (configuration not stated) | 797
CSc1ccc(CNC(=O)CN2CCc3[nH]c4c(C)cc(C)cc4c(=O)c3C2)cc1 | 904
Cc1cc(NC(=O)Cn2c(=O)n(C(C)C)c3ccc(-c4noc(C)n4)cc32)no1 | 755
Cn1c(C(=O)NCCCN2CCN(C3CCCCC3)CC2)cc2sccc21 | 547
O=C(NCC1CN(CC2CC2)CC12CCCCC2)Nc1cc(F)cc(F)c1 (configuration not stated) | 760
CCN1C(=O)c2cccnc2Sc2cc(C(=O)NCc3cccc(F)c3)ccc21 | 810
